# According to US6013625A, “Method and composition for treating thrombosis” (La Jolla Cancer Research Foundation, priority 1994, dated 2000):
# Values joined by “and” are separate entries in the source; they are usually repeats but may differ in a detail not shown here. Equal values may be shown once.
# Experiments:
# platelets [1] = assay: Ex vivo platelet aggregation after peptide injection in the canine coronary thrombosis model; parameters: species or system dog; conditions: for reduction of ex vivo aggregation relative to control levels: 3 mg/kg
# Procedure: For all ex vivo studies (see FIG. 3), control aggregation values were standardized to the percentages of light transmission observed in PRP and PPP samples (0% and 100%, respectively).
# Animals were randomly assigned to two treatment groups: vehicle control (i.e., normal saline) or RGD peptides at various concentrations. Peptides were administered intra-atrially in both bolus and continuous injections. […] A continuous infusion of the same peptide was then started immediately after completion of this initial injection. Animals that received a 5 mg/kg bolus also received a 5 mg/kg/hr infusion, whereas animals that received a 10 mg/kg bolus also received a 10 mg/kg/hr infusion. The anti-thrombotic effects of the peptides were monitored until 30 minutes after the occurrence of a persistent, occlusive thrombus or five hours after the initiation of electrical stimulation (whichever resulted first). If an occlusive thrombus had not developed within four hours after the initiation of current, the peptide infusion was stopped.
# Platelet counts and ex vivo aggregation studies were performed one hour before and 1, 3, and 5 hours after application of anodal direct current.
# Platelet aggregation was also determined ex vivo at one, three, and five hours after current application. For these studies, arachidonic acid, or collagen was again used to stimulate the platelets.
# coronary thrombosis = assay: Electrically induced canine coronary thrombosis, time to full occlusion; assay type: in vivo, dog
# Procedure: Male mongrel dogs weighing 14 to 20 kg were selected based on proper aggregation of their platelets in response to arachidonic acid, collagen, and adenosine disphosphate (ADP) and based on similar weights and hemodynamic properties.
# Before surgery, the animals were anesthetized with sodium pentobarbital (30 mg/kg, i.v.) and then intubated and ventilated on room air with positive pressure using a respirator (Harvard Apparatus, S. Natick, Mass.) at a volume of 30 ml/kg and a frequency of 12 breaths/min. Surgery, performed under aseptic conditions, was begun with the placement of cannulae into the left carotid artery and jugular vein for monitoring arterial blood pressure (Statham P23 pressure transducer, Gould, Inc., Cardiovascular Products, Oxnard, Calif.) and administering intravenous fluids.
# The heart was exposed via a left thoracotomy through the 5th intercostal space. A 2-cm segment of the left circumflex coronary artery (LCCA) was isolated from surrounding tissue by blunt dissection. […] The intra-coronary electrode was constructed by attaching a 25-gauge hypodermic needle tip to a 30-gauge Teflon-insulated silver-coated copper wire. The mechanical occluder was constructed of stainless steel in a C shape with a Teflon screw (2 mm diameter) on top. It was adjusted to control vessel circumference and decrease the reactive hyperemic flow due to a 10-sec (full) occlusion by 50-70% without affecting basal coronary blood flow (FIG. 1). A monopolar epicardial electrode was sutured to the surface of the ventricle in the region of LCCA distribution to monitor ischemic changes in the electrocardiogram (ECG). The left atrium was cannulated with polythylene tubing for administration of the peptide. Continuous recordings of blood pressure, limb lead II ECG, epicardial electrogram, and mean and phasic LCCA blood flow were obtained on a Model 7 polygraph (Grass Instrument Co., Quincy, Mass.).
# One hour after the completion of surgery, a 100 micro-amp continuous anodal direct current delivered from a 9 volt nickel-cadmium battery was applied to the intimal surface of the LCCA. The anode of the battery was in series with a 250,000 ohm potentiometer and the intraluminal coronary artery electrode. The electric circuit was completed by placing the cathode in a subcutaneous site. Electrical stimulation was applied for three hours. At the conclusion of each experiment, the heart was fibrillated electrically and quickly removed, and the LCCA was dissected free as far as possible to verify the position of the implanted anodal electrode.
# Animals were randomly assigned to two treatment groups: vehicle control (i.e., normal saline) or RGD peptides at various concentrations. Peptides were administered intra-atrially in both bolus and continuous injections. Each bolus injection consisted of 5 or 10 mg/kg and was administered 15 minutes before application of the current. A continuous infusion of the same peptide was then started immediately after completion of this initial injection. Animals that received a 5 mg/kg bolus also received a 5 mg/kg/hr infusion, whereas animals that received a 10 mg/kg bolus also received a 10 mg/kg/hr infusion. The anti-thrombotic effects of the peptides were monitored until 30 minutes after the occurrence of a persistent, occlusive thrombus or five hours after the initiation of electrical stimulation (whichever resulted first). If an occlusive thrombus had not developed within four hours after the initiation of current, the peptide infusion was stopped.
# Coronary thrombosis was quantified as the time to full occlusion. The effects of the various peptide treatments on coronary thrombosis is illustrated in FIG. 4.
# [2] = target: T1, fibronectin receptor (Fn-R) (Homo sapiens, UniProt P05556+P08648); assay: Competitive ELISA for fibronectin receptor binding; conditions: purified receptor from human placenta, read-out: FnR Binding (IC50)
# T1 construct: purified from (100 mM) octyl glucoside-extracted human placenta; from tissue; host or cells: human placenta
# Procedure: Peptide binding to purified Fn-R was determined by using a competitive enzyme-linked immunosorbent assay (ELISA) in which fibronectin is immobilized and the binding of solubilized Fn-R is detected with labeled anti-FnR antibodies in the presence of various concentrations of peptide analogue.
# Microtiter plates were coated with 110 μl of human fibronectin (at 2 μg/ml) in TBS. The plates were washed three times with TBS that contained 0.05% Tween 20. If necessary, peptides were added after this washing in 10 microliter aliquots. The fibronectin receptor was then added in 2-fold serial dilutions with TBS containing 20 mM octyl glucoside and 2 mM MnCl2. The plates were incubated for three hours at room temperature, washed with 200 μl of the above TBS-Tween buffer. 100 μl of affinity-purified rabbit anti-human fibronectin receptor antibody was added to the wells and the plates were incubated for an additional two hours, washed twice with TBS-Tween and then distilled water. Affinity-purified goat anti-rabbit IgG conjugated to horseradish peroxidase (100 μl) was then added to each well. Bonding reactions were incubated for 16 hours at room temperature. The following day, the plates were washed twice with TBS-Tween and then distilled water. […]
# [3] = target: T2, vitronectin receptor (Vn-R) (Homo sapiens, UniProt P05106+P06756); assay: Liposome attachment assay for vitronectin receptor; conditions: purified receptor from human placenta, read-out: VnR Binding (IC50)
# T2 construct: from tissue; host or cells: human placenta
# Procedure: Receptors were purified according to the procedures of Pytela et al. (Methods Enzymol. 144:475 (1987)), incorporated herein by reference. […] After extraction, the suspension was filtered over a Sepharose 6B column and then applied to a GRGDSPK column. Except where stated, all procedures were carried out at 4° C. The peptide column was washed with three volumes of Tris-buffered saline (TBS) containing 1 mM Ca^2+ and 25 mM OG and then with TBS containing 1 mM Ca^2+ and 25 mM octyl thioglucoside (OTG) at room temperature. […] Finally, Ca^2+ and Mg^+2 were added to eluted fractions to achieve final concentrations of 1 mM for both ions.
# This assay was performed with minor modifications, according to the method of Pytela et al., Methods Enzymol. 144:475 (1987), incorporated herein by reference. […] An aliquot of the dialyzed sample was counted to assess radioactive content; the receptor-liposome mixture was then diluted to obtain a set radioactivity per unit volume. […]
# (§1) In parallel studies with the platelet aggregation experiments (described in Example V), the apparent affinities of peptides for GP IIb/IIIa, fibronectin and vitronectin receptors were determined. […]
# (§2) IC50 s for FnR were determined by ELISA (Example III). Those for VnR and GP IIb/IIIa were determined by liposome attachment assay (Example IV). […]
# platelets [4] = assay: Ex vivo ADP-stimulated platelet aggregation in baboon PRP; conditions: animal 2; ADP 10 μm; 0, 1 and 2 hours
# Procedure: At one- and two-hour time points, template bleeding times were measured, and blood samples were drawn to assess the hematology aggregation studies. Platelet aggregation studies were performed as described in Example V using ADP as the stimulus.
# In addition, platelet aggregation studies were conducted on PRP derived from the second animal. Whole blood was drawn at three time points (0, 1 and 2 hours) of both control and experimental shunts.
# GP IIb/IIIa = GP IIb/IIIa (Homo sapiens, UniProt P05106+P08514); assay: Liposome attachment assay for GP IIb/IIIa; conditions: read-out: IIb/IIIa Binding (IC50)
# Procedure: This assay was performed with minor modifications, according to the method of Pytela et al., Methods Enzymol. 144:475 (1987), incorporated herein by reference. Briefly, 1:4 mixture of labelled and unlabelled phosphatidylcholine (PC) liposomes was dissolved under nitrogen and diluted with an equal volume of purified receptor (purified as described in Example II) to achieve a fixed predetermined receptor-liposome concentration ratio. This mixture was then dialyzed overnight at 4° C. in phosphate buffered saline (PBS) containing 1 mM Ca^2+. An aliquot of the dialyzed sample was counted to assess radioactive content; the receptor-liposome mixture was then diluted to obtain a set radioactivity per unit volume.
# Microtiter plates were coated with 10 μg of vitronectin. Non-specific sites were blocked for 2 hours at 37° C. in PBS containing 5 mg/ml BSA and 1 mM each of CaCl2 and MgCl2. The plates were then rinsed twice with PBS containing 1 mM Ca^+2 and Mg^+2, and 100 μl of the liposome-receptor mixture was added to each well. […]
# as §1, §2
# [5] = tested on: platelets stimulated with ADP; assay: ADP-stimulated platelet aggregation (aggregometer, platelet-rich plasma); conditions: read-out: ADP-Stimulated Aggregation (IC50), ADP 10 μm, 37° C.
# Procedure: Briefly, the change in light transmission was measured through a stirred suspension of platelets in an aggregometer (Model 400 VS, Chrono-Log, Havertown, Pa., USA). […] In studies using thrombin, the PRP was gel-filtered on Sepharose 2B in divalent ion-free Tyrode's solution containing 2% BSA. For all studies, the reference standard was platelet-poor plasma, which was obtained by centrifuging PRP at 1000×g for 5 min.
# All aggregation studies were performed at 37° C. with a constantly stirred suspension of 3×10^8 platelets/ml. (Platelet count was determined with the aid of a hemacytometer.) Peptides and stimulants were added to these suspensions in 1% dilutions. The PRP and gel-filtered platelets were used within three hours from the time of blood collection.
# Peptide anti-aggregation potencies were determined from dose-responsive curves for the inhibition of the maximum aggregation responses stimulated by physiologic doses of ADP (10 μm) and thrombin (2 U/ml).
# [6] = 10 mg/kg bolus + 10 mg/kg/hr, intra-atrial
# [7] = 10 mg/kg, all three time points
# T1 sequence (P08648 42-894 limits assumed): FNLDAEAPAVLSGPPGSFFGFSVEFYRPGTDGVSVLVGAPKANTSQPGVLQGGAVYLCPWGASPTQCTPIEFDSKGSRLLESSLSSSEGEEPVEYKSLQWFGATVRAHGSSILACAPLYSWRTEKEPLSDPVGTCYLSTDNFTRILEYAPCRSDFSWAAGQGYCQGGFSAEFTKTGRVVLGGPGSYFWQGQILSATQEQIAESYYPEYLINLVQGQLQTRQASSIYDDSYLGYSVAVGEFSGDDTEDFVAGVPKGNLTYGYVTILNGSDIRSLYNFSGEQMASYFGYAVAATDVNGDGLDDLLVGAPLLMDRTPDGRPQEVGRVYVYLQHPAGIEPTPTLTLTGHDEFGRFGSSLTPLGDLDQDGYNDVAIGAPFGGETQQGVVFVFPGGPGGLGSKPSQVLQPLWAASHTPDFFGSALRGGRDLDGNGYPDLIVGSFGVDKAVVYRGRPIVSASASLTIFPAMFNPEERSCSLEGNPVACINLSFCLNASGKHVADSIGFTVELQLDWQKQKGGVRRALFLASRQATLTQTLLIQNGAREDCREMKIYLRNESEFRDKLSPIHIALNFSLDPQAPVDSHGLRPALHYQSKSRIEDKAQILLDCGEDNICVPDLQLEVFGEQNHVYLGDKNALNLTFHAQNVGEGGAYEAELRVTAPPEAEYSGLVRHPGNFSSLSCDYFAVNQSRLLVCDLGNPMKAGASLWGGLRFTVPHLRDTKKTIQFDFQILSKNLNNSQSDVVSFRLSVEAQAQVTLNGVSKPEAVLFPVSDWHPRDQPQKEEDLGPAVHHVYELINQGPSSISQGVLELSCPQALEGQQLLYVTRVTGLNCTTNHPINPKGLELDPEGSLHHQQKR
# T1 sequence (P08648 895-1049 partner limits assumed): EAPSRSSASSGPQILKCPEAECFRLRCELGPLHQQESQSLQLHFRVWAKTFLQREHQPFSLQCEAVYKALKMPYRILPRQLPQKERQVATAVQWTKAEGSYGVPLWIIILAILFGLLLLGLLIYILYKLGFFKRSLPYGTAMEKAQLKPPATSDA
# T1 sequence (P05556 21-798): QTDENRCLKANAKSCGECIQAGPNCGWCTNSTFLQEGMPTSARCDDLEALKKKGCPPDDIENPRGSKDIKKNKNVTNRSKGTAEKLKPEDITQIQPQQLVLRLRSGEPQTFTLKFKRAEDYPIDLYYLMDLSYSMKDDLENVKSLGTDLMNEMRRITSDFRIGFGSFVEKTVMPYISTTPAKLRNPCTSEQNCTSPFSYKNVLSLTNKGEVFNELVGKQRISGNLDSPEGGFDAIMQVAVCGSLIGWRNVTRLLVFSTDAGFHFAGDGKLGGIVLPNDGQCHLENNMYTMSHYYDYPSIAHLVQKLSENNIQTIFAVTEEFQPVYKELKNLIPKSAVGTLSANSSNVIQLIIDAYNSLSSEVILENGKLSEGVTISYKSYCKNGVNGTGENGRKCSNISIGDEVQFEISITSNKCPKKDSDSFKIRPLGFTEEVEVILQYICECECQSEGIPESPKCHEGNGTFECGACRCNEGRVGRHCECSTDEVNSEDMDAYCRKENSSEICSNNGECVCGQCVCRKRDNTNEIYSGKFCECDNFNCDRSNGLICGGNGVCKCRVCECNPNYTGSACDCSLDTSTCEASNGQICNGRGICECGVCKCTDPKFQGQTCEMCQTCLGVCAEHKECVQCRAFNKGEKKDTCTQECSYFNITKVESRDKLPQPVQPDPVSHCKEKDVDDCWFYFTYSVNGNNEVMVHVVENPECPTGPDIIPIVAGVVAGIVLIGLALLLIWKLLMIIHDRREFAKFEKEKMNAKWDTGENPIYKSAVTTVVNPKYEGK
# T2 sequence (P06756 31-889 limits assumed): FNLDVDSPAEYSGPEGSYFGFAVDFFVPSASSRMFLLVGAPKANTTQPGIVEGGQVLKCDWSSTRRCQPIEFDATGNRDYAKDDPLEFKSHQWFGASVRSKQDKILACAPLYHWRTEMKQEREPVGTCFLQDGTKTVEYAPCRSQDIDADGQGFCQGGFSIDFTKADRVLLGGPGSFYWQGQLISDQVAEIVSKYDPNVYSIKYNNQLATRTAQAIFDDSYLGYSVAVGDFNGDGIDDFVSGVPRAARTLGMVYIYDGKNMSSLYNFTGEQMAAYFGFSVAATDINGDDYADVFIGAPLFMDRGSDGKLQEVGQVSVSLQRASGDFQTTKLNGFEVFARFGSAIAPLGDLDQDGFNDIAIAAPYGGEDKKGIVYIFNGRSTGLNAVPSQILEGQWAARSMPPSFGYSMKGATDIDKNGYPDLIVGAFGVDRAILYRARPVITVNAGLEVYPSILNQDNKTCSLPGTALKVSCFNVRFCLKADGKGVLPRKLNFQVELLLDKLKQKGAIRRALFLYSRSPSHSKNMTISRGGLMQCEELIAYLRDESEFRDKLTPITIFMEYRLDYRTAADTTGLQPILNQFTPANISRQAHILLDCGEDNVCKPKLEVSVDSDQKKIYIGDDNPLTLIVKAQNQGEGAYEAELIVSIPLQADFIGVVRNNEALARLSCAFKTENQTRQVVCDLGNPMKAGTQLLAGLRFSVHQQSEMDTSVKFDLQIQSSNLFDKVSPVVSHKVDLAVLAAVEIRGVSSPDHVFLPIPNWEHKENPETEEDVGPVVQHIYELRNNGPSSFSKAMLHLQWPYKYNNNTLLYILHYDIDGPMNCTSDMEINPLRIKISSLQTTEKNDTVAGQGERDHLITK
# T2 sequence (P06756 891-1048 partner limits assumed): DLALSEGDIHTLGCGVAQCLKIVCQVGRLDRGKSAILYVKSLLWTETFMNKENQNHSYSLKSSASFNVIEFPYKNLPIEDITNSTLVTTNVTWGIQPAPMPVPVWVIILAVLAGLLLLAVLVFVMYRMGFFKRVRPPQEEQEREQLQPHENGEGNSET
# T2 sequence (P05106 27-788): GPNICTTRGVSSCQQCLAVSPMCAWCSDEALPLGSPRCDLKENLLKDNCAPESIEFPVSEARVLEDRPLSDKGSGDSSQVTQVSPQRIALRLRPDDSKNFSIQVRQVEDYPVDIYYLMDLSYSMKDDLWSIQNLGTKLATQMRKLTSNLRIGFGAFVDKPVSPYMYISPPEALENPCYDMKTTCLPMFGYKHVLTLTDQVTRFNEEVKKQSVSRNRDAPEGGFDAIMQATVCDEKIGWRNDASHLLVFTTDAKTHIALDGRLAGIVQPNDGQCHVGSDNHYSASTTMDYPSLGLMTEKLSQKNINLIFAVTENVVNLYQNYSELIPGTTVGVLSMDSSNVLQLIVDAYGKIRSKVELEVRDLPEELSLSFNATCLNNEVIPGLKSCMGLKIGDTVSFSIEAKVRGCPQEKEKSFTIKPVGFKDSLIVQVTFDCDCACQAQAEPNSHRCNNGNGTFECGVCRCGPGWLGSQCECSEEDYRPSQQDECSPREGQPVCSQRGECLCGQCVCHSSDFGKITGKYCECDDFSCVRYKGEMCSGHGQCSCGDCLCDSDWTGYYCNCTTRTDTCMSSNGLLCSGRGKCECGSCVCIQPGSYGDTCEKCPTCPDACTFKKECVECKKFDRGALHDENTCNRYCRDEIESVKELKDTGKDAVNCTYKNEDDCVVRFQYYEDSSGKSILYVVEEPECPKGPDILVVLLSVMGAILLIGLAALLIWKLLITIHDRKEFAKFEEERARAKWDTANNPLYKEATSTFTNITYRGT
# Chain of GP IIb/IIIa (P08514 32-887 limits assumed): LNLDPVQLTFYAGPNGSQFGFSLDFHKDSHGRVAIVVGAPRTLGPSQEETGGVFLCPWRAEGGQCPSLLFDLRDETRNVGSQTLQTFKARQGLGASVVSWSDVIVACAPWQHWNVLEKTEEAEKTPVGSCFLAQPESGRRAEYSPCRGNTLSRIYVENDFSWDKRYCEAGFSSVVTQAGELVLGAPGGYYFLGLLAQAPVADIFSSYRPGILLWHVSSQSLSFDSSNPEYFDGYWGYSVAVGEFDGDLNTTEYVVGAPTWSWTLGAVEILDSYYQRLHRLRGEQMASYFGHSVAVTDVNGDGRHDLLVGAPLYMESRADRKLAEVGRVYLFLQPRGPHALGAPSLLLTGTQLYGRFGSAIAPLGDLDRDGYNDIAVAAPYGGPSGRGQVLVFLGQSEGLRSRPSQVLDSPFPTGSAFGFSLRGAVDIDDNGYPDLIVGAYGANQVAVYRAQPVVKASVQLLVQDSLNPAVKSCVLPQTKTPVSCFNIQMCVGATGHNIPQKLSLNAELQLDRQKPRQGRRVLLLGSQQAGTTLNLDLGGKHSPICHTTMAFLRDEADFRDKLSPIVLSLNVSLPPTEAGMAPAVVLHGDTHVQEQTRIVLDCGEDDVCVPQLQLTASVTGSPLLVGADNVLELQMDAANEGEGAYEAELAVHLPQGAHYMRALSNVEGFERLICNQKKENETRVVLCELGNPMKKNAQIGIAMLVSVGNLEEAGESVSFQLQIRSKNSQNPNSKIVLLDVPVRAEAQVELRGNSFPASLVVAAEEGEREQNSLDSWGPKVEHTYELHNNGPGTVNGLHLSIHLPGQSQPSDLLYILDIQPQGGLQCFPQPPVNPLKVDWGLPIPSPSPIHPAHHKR
# Chain of GP IIb/IIIa (P08514 891-1039 partner limits assumed): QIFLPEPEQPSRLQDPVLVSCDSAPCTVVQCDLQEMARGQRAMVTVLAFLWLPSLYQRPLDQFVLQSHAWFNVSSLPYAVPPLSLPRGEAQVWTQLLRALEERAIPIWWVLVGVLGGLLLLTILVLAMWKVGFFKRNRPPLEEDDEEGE
# Chain of GP IIb/IIIa (P05106 27-788): as the sequence (P05106 27-788) above
substance,measurement,setting,value
RPenGRGDWPCR,reduction of ex vivo aggregation relative to control levels,platelets [1]; one hour,20-58%
same,reduction of ex vivo aggregation relative to control levels,"platelets [1]; three and five hours, listed as 4R",75-100% and 72-100%
same,ex vivo platelet responsiveness to all modes of stimulation,"platelets [1]; 10 mg/kg, all time points",unresponsive
same,time to full occlusion (coronary thrombosis),coronary thrombosis; 3 mg/kg,ineffective
same,time to full occlusion (coronary thrombosis),coronary thrombosis; [6],prevented occlusion
GRGDSPDG,IC50,[2],0.005 µM
GHRGDLRDASG,IC50,[3],36.8 µM
GPenGHRGDLRCA,inhibition of ADP-stimulated ex vivo aggregation,"platelets [1]; 10 mg/kg, 1, 3 and 5 h",substantially inhibited
same,inhibition of AA-stimulated ex vivo aggregation relative to control levels,platelets [1]; [7],43-70%
same,inhibition of collagen-stimulated ex vivo aggregation relative to control levels,platelets [1]; [7],12-50%
same,ex vivo platelet responsiveness to ADP,platelets [4],completely unresponsive
same,time to full occlusion (coronary thrombosis),coronary thrombosis; [6],did not significantly influence
FRGDSPDG,IC50,[2],0.12 µM
RPenGHRGDWRCR,blockade of all ex vivo aggregation responses,platelets [1]; 5 mg/kg,completely or near-maximally blocked
same,inhibition of ex vivo platelet activation by collagen,platelets [1]; 5 mg/kg,near-maximal inhibition
same,platelet responsiveness ex vivo to ADP and AA,"platelets [1]; 5 mg/kg, all three time points",completely unresponsive
same,thrombus formation in animals whose circulating platelet levels were one-third of normal,coronary thrombosis; 5 mg/kg,able to prevent thrombus formation
same,time to full occlusion (coronary thrombosis),"coronary thrombosis; 5 mg/kg bolus + 5 mg/kg/hr, intra-atrial",significantly prolonged
same,time to full occlusion (coronary thrombosis),coronary thrombosis; [6],completely prevented occlusion
GPGRGDSPCA,IC50,GP IIb/IIIa,20 µM
(t-but-am-Pam-Pmp)GHRGDLRPenA,IC50,[5],89 µM
